Tests used:
Type in all cases: in vivo
[1] = system: ivy-leaved morning glory (Ipomoea hederacea); assay: Test G Post-Emergence Protocol; details: Ipomoea, post-emergence, 312 h; for pest or weed control at 15.625 g/ha: 15.625 g ai/ha, evaluated after 13 days (100=total damage to plant; 0=no damage to plant), read-out: Morningglory, Ivy-leaved damage rating; for pest or weed control at 62.5 g/ha: 62.5 g ai/ha, read-out: Morningglory, Ivy-leaved damage rating (100=total damage to plant; 0=no damage to plant); for pest or weed control at 62.5 g/ha / pest or weed control at 250 g/ha: evaluated after 13 days; for pest or weed control at 250 g/ha: 250 g ai/ha, read-out: damage to plant, Morningglory, Ivy-leaved (100=total damage to plant; 0=no damage to plant)
Method in brief: (§1)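 Post-emergence herbicidal damage, scored visually 0–100 at 13 days. Application at 15.625, 62.5 or 250 g/ha onto 8-day-old plants grown under glasshouse control.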

[2] = system: barnyardgrass (Echinochloa crus-galli); assay: Test G Post-Emergence Protocol; details: Echinochloa crus-galli, post-emergence, 312 h; for pest or weed control at 15.625 g/ha: 15.625 g ai/ha, evaluated after 13 days (100=total damage to plant; 0=no damage to plant), read-out: Barnyardgrass damage rating; for pest or weed control at 62.5 g/ha: 62.5 g ai/ha, read-out: Barnyardgrass damage rating (100=total damage to plant; 0=no damage to plant); for pest or weed control at 62.5 g/ha / pest or weed control at 250 g/ha: evaluated after 13 days; for pest or weed control at 250 g/ha: 250 g ai/ha, read-out: damage to plant, Barnyardgrass (100=total damage to plant; 0=no damage to plant)
Method in brief: as §1

[3] = system: velvetleaf (Abutilon theophrasti); assay: Test G Post-Emergence Protocol; details: Abutilon theophrasti, post-emergence, 312 h; for pest or weed control at 15.625 g/ha: 15.625 g ai/ha, evaluated after 13 days (100=total damage to plant; 0=no damage to plant), read-out: Velvetleaf damage rating; for pest or weed control at 62.5 g/ha: 62.5 g ai/ha, read-out: Velvetleaf damage rating (100=total damage to plant; 0=no damage to plant); for pest or weed control at 62.5 g/ha / pest or weed control at 250 g/ha: evaluated after 13 days; for pest or weed control at 250 g/ha: 250 g ai/ha, read-out: damage to plant, Velvetleaf (100=total damage to plant; 0=no damage to plant)
Method in brief: as §1

[4] = system: corn (Zea mays); assay: Test G Post-Emergence Protocol; details: Zea mays, post-emergence, 312 h; for plant injury at 15.625 g/ha: 15.625 g ai/ha, evaluated after 13 days (100=total damage to plant; 0=no damage to plant), read-out: Corn damage rating; for plant injury at 62.5 g/ha: 62.5 g ai/ha, read-out: Corn damage rating (100=total damage to plant; 0=no damage to plant); for plant injury at 62.5 g/ha / plant injury at 250 g/ha: evaluated after 13 days; for plant injury at 250 g/ha: 250 g ai/ha, read-out: damage to plant, Corn (100=total damage to plant; 0=no damage to plant)
Method in brief: as §1

[5] = system: redroot pigweed (Amaranthus retroflexus); assay: Test G Post-Emergence Protocol; details: Amaranthus retroflexus, post-emergence, 312 h; for pest or weed control at 15.625 g/ha: 15.625 g ai/ha, evaluated after 13 days (100=total damage to plant; 0=no damage to plant), read-out: Pigweed, Redroot damage rating; for pest or weed control at 62.5 g/ha: 62.5 g ai/ha, read-out: Pigweed, Redroot damage rating (100=total damage to plant; 0=no damage to plant); for pest or weed control at 62.5 g/ha / pest or weed control at 250 g/ha: evaluated after 13 days; for pest or weed control at 250 g/ha: 250 g ai/ha, read-out: damage to plant, Pigweed, Redroot (100=total damage to plant; 0=no damage to plant)
Method in brief: as §1

[6] = system: giant foxtail (Setaria faberi); assay: Test G Post-Emergence Protocol; details: Setaria faberi, post-emergence, 312 h; for pest or weed control at 15.625 g/ha: 15.625 g ai/ha, evaluated after 13 days (100=total damage to plant; 0=no damage to plant), read-out: Foxtail, Giant damage rating; for pest or weed control at 62.5 g/ha: 62.5 g ai/ha, read-out: Foxtail, Giant damage rating (100=total damage to plant; 0=no damage to plant); for pest or weed control at 62.5 g/ha / pest or weed control at 250 g/ha: evaluated after 13 days; for pest or weed control at 250 g/ha: 250 g ai/ha, read-out: damage to plant, Foxtail, Giant (100=total damage to plant; 0=no damage to plant)
Method in brief: as §1

[7] = system: ivy-leaved morning glory (Ipomoea hederacea); assay: Test G Pre-Emergence Protocol; details: Ipomoea, pre-emergence, 312 h, evaluated after 13 days; for pest or weed control at 15.625 g/ha: 15.625 g ai/ha, read-out: Morning-glory, Ivy-leaved damage rating (100=total damage to plant; 0=no damage to plant); for pest or weed control at 62.5 g/ha: 62.5 g ai/ha, 100=total damage to plant, 0=no damage to plant, read-out: plant damage rating, Morningglory, Ivy-leaved; for pest or weed control at 250 g/ha: 250 g ai/ha, read-out: Morningglory, Ivy-leaved damage rating (100=total damage to plant; 0=no damage to plant)
Method in brief: (§2)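 Pre-emergence spray, 15.625/62.5/250 g/ha, vehicle acetone:water 50:50 + 0.5% Tween 20, applied 1 d after sowing. Glasshouse 24/16° C, 14 h light, 65% RH, watered twice daily. Visual damage rating at 13 d, 0–100 scale.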

[8] = system: barnyardgrass (Echinochloa crus-galli); assay: Test G Pre-Emergence Protocol; details: Echinochloa crus-galli, pre-emergence, 312 h, evaluated after 13 days; for pest or weed control at 15.625 g/ha: 15.625 g ai/ha, read-out: Barnyard grass damage rating (100=total damage to plant; 0=no damage to plant); for pest or weed control at 62.5 g/ha: 62.5 g ai/ha, 100=total damage to plant, 0=no damage to plant, read-out: plant damage rating, Barnyardgrass; for pest or weed control at 250 g/ha: 250 g ai/ha, read-out: Barnyardgrass damage rating (100=total damage to plant; 0=no damage to plant)
Method in brief: as §2

[9] = system: velvetleaf (Abutilon theophrasti); assay: Test G Pre-Emergence Protocol; details: Abutilon theophrasti, pre-emergence, 312 h, evaluated after 13 days; for pest or weed control at 15.625 g/ha: 15.625 g ai/ha; for pest or weed control at 15.625 g/ha / pest or weed control at 250 g/ha: read-out: Velvetleaf damage rating (100=total damage to plant; 0=no damage to plant); for pest or weed control at 62.5 g/ha: 62.5 g ai/ha, 100=total damage to plant, 0=no damage to plant, read-out: plant damage rating, Velvetleaf; for pest or weed control at 250 g/ha: 250 g ai/ha
Method in brief: as §2

[10] = system: corn (Zea mays); assay: Test G Pre-Emergence Protocol; details: Zea mays, pre-emergence, 312 h, evaluated after 13 days; for plant injury at 15.625 g/ha: 15.625 g ai/ha; for plant injury at 15.625 g/ha / plant injury at 250 g/ha: read-out: Corn damage rating (100=total damage to plant; 0=no damage to plant); for plant injury at 62.5 g/ha: 62.5 g ai/ha, 100=total damage to plant, 0=no damage to plant, read-out: plant damage rating, Corn; for plant injury at 250 g/ha: 250 g ai/ha
Method in brief: as §2

[11] = system: redroot pigweed (Amaranthus retroflexus); assay: Test G Pre-Emergence Protocol; details: Amaranthus retroflexus, pre-emergence, 312 h, evaluated after 13 days; for pest or weed control at 15.625 g/ha: 15.625 g ai/ha; for pest or weed control at 15.625 g/ha / pest or weed control at 250 g/ha: read-out: Pigweed, Redroot damage rating (100=total damage to plant; 0=no damage to plant); for pest or weed control at 62.5 g/ha: 62.5 g ai/ha, 100=total damage to plant, 0=no damage to plant, read-out: plant damage rating, Pigweed, Redroot; for pest or weed control at 250 g/ha: 250 g ai/ha
Method in brief: as §2

[12] = system: giant foxtail (Setaria faberi); assay: Test G Pre-Emergence Protocol; details: Setaria faberi, pre-emergence, 312 h, evaluated after 13 days; for pest or weed control at 15.625 g/ha: 15.625 g ai/ha; for pest or weed control at 15.625 g/ha / pest or weed control at 250 g/ha: read-out: Foxtail, Giant damage rating (100=total damage to plant; 0=no damage to plant); for pest or weed control at 62.5 g/ha: 62.5 g ai/ha, 100=total damage to plant, 0=no damage to plant, read-out: plant damage rating, Foxtail, Giant; for pest or weed control at 250 g/ha: 250 g ai/ha
Method in brief: as §2

Structure (SMILES) | pest or weed control at 15.625 g/ha [1] [%] | pest or weed control at 62.5 g/ha [1] [%] | pest or weed control at 250 g/ha [1] [%] | pest or weed control at 15.625 g/ha [2] [%] | pest or weed control at 62.5 g/ha [2] [%] | pest or weed control at 250 g/ha [2] [%] | pest or weed control at 15.625 g/ha [3] [%] | pest or weed control at 62.5 g/ha [3] [%] | pest or weed control at 250 g/ha [3] [%] | plant injury at 15.625 g/ha [4] [%] | plant injury at 62.5 g/ha [4] [%] | plant injury at 250 g/ha [4] [%] | pest or weed control at 15.625 g/ha [5] [%] | pest or weed control at 62.5 g/ha [5] [%] | pest or weed control at 250 g/ha [5] [%] | pest or weed control at 15.625 g/ha [6] [%] | pest or weed control at 62.5 g/ha [6] [%] | pest or weed control at 250 g/ha [6] [%] | pest or weed control at 15.625 g/ha [7] [%] | pest or weed control at 62.5 g/ha [7] [%] | further results
Cc1c(NC(=O)[C@@H]2C(=O)N(C)C[C@H]2c2ccc(C(F)(F)F)cc2)ccnc1Cl (racemic) [Compound 1631] | 0 | 20 | 20 | 0 | 10 | 10 | 0 | 10 | 0 | 0 | 0 | 10 | 0 | 20 | 20 | 0 | 60 | 70 | 0 | 20 | pest or weed control at 250 g/ha [7]: 30%; pest or weed control at 15.625 g/ha [8]: 0%; pest or weed control at 62.5 g/ha [8]: 0%; pest or weed control at 250 g/ha [8]: 0%; pest or weed control at 15.625 g/ha [9]: 0%; pest or weed control at 62.5 g/ha [9]: 0%; pest or weed control at 250 g/ha [9]: 0%; plant injury at 15.625 g/ha [10]: 0%; plant injury at 62.5 g/ha [10]: 10%; plant injury at 250 g/ha [10]: 0%; pest or weed control at 15.625 g/ha [11]: 0%; pest or weed control at 62.5 g/ha [11]: 20%; pest or weed control at 250 g/ha [11]: 10%; pest or weed control at 15.625 g/ha [12]: 0%; pest or weed control at 62.5 g/ha [12]: 10%; pest or weed control at 250 g/ha [12]: 70%
CN1C[C@@H](c2ccc(C(F)(F)F)cc2)[C@H](C(=O)Nc2c[nH]nc2Cl)C1=O (racemic) [Compound 1633] | 0 | 0 | 0 | 0 | 0 | 0 | 0 | 0 | 0 | 0 | 0 | 0 | 0 | 0 | 0 | 0 | 0 | 0 | 0 | 0 | pest or weed control at 250 g/ha [7]: 0%; pest or weed control at 15.625 g/ha [8]: 0%; pest or weed control at 62.5 g/ha [8]: 0%; pest or weed control at 250 g/ha [8]: 0%; pest or weed control at 15.625 g/ha [9]: 0%; pest or weed control at 62.5 g/ha [9]: 0%; pest or weed control at 250 g/ha [9]: 0%; plant injury at 15.625 g/ha [10]: 0%; plant injury at 62.5 g/ha [10]: 0%; plant injury at 250 g/ha [10]: 0%; pest or weed control at 15.625 g/ha [11]: 0%; pest or weed control at 62.5 g/ha [11]: 0%; pest or weed control at 250 g/ha [11]: 0%; pest or weed control at 15.625 g/ha [12]: 0%; pest or weed control at 62.5 g/ha [12]: 0%; pest or weed control at 250 g/ha [12]: 0%

From patent publication US12077503B2, “Substituted cyclic amides and their use as herbicides” (FMC CORPORATION, priority 2015, dated 2024)
